Experimental data: patent US20210154170A1, “METHODS OF TREATING NEUROPATHIC PAIN” (Biogen MA Inc., priority 2018, published 2021)
Read-outs that look alike come from different tables or passages of the source.

Tests used:
[1] = Phase 1 ABPM study, pharmacokinetics; assay type: in vivo, human
Description: This was a Phase 1, randomized, double-blind, placebo-controlled, repeat dose, 2-period cross-over study to investigate the effect of BIIB074 300-400 mg bid on ambulatory blood pressure (ABP) in healthy participants (FIG. 2). The study comprised: screening (to occur a maximum of 30 days before the first baseline assessment); two 36-day treatment periods, each preceded by a baseline visit and separated by a 7-day washout (to minimize possible carry over effects); and a follow-up period of 7-14 days after last dose. Prior to this study, no females had received BIIB074; for this reason, a single dose BIIB074 session at the dose level of 400 mg was also conducted in female participants one week prior to the period 1 baseline visit. Following this session, some participants were predicted to exceed the predefined PK limit (area under the plasma concentration-time curve [AUC] 97 μg·h/mL) when receiving 400 mg bid at steady state. Therefore, in the subsequent phases of the study, all female participants received a lower dose of 300 mg bid (males received 400 mg bid).
The primary endpoint was change in 24 h average SBP and DBP from baseline to day 36 as determined by ABPM. Secondary outcome measures included: change in 24 h average SBP and DBP from baseline to days 4 and 15; change in average SBP and DBP within a 12 h dosing interval from baseline to days 14 and 35 (inpatient); change in 24 h average ambulatory heart rate from baseline to days 4, 15 and 36; proportion of participants whose 24 h SBP and DBP increased by <5, 5-9, 10-14, 15-19, and >20 mm Hg compared with baseline; PK parameters of BIIB074 following a single oral dose in healthy female participants, and following repeated oral doses given twice daily to healthy male and female participants; PK/pharmacodynamic (PD) analyses to examine the correlation between ABP and plasma levels and/or metrics of the systemic exposure of BIIB074.
ABPM data were analyzed using a repeated measures mixed effects model, whereby fixed effects were treatment, day, treatment*day, period, average baseline*day, period adjusted baseline*day, sex and treatment*sex; random effect was subject; and repeated effect was day. All summary statistics were carried out using SAS 8.02 for UNIX running under the Harmonisation of Analysis and Reporting Program (HARP) environment. PK parameters were calculated by standard non-compartmental analysis according to working practices and using Win Nonlin Pro v. 5.2.
The safety population was the primary analysis population for this study and included all participants who received one or more doses of BIIB074. The PK population was defined as participants in the safety population for whom a PK sample was obtained and analyzed.

human hepatocytes = assay: Metabolism in human hepatocytes; assay type: in vitro ADME
[2] = test system: patients with lumbosacral radiculopathy; conditions: PLSR, 350 mg bid, Phase 2, cited from earlier work
dogs = assay: Preclinical safety pharmacology, cardiovascular parameters; assay type: in vivo, dog; conditions: data not shown
Description: The 36 day treatment duration in this study was rationally designed to determine whether tolerance developed for any potential effects of BIIB074 on SBP or DBP, since BP effects resolved by day 28 in the earlier phase 1 trial. The data from this study show a slight trend towards a decrease in the BP difference between BIIB074 and placebo between day 4 and day 35, although differences were minimal at all time points. […] Thus, the body of evidence, encompassing clinical and preclinical studies, supports safety and minimal effects of BIIB074 on BP/cardiovascular parameters.

[3] = Phase 1 study of effect of UGT inhibition by valproic acid on PK of BIIB074; assay type: in vivo, human; conditions: for AUC(0-inf) / AUC(0-t) / Cmax: human, plasma, oral; for AUC(0-inf): read-out: AUCinf, Geo LS mean; for AUC(0-t): read-out: AUClast, Geo LS mean; for Cmax: read-out: Cmax, Geo LS mean
Description: In clinical practice BIIB074 may be coadministered with UGT inhibitors, which could potentially increase exposure to BIIB074 by reducing the extent of BIIB074 metabolism by UGTs. Valproic acid, which has long been used as a medication to treat seizures and bipolar disorder, is a non specific inhibitor of UGTs and has been used as a probe to determine the effect of UGT inhibition on the PK of compounds that are metabolized by multiple UGTs. Herein, the potential of the UGT inhibitor valproic acid to alter the single dose PK, safety, and tolerability of BIIB074 was assessed to inform the feasibility and safety of coadministration of BIIB074 with compounds known to inhibit UGTs.
• To evaluate the effect of multiple doses of the uridine diphosphate glucuronosyltransferase (UGT) inhibitor valproic acid on the single dose PK of BIIB074. • The primary endpoints that relate to this objective are: maximum observed concentration (Cmax), area under the curve (AUC) from time 0 to infinity (AUCinf), and AUC from time 0 to time of the last measurable concentration (AUClast) for BIIB074. • Other endpoints that relate to the primary objective are the time to reach Cmax (Tmax), time of the last measurable concentration (Tlast), t1/2 apparent clearance (CL/F), and apparent volume of distribution (V/F) for BIIB074.

[4] = BIIB074 with valproic acid/BIIB074 alone
[5] = single dose BIIB074 with valproic acid

With `Cl.NC(=O)[C@@H]1CC[C@H](c2ccc(OCc3ccccc3F)cc2)N1` [Example 1, (5R)-5-(4-{[(2-Fluorophenyl)methyl]oxy}phenyl)-L-prolinamide hydrochloride] the AUCex ([1]; 400 mg single dose, female) was 15.2%, the tmax ([1]; Day 1, 300 mg bid, female) was 1.50 h and the tmax ([1]; Day 14, 300 mg bid, female) was 1.50 h. The “AUC(0-12)” value ([1]; Day 14, 400 mg bid, male) was 32100 (23.5) ng · h/mL, the Cmax ([1]; Day 35, 300 mg bid, female) was 3990 (26.6) ng/mL and the “AUC(0-24) in males (400 mg bid) higher than in females (300 mg bid)” value ([1]; days 14 and 35, on average) was 10%. The “Cmax in males (400 mg bid) higher than in females (300 mg bid)” value ([1]; days 14 and 35, on average) was 11-19%, the “Dose-normalized AUC lower in male than in female participants” value ([1]; repeat dosing, days 14 and 35) was 17-18% and the “Dose-normalized Cmax lower in male than in female participants” value ([1]; repeat dosing, days 14 and 35) was 11-17%. The “Main route of metabolism” value (human hepatocytes) was “mainly metabolized by uridine diphosphate glucuronosyltransferases (UGTs)”, the Clinical efficacy ([2]; hydrochloride) was “EFFICACY OBSERVED in” and the Clinical efficacy ([2]; listed as CNV1014802, hydrochloride) was “demonstrated clinical benefit”. The “Effects on cardiovascular parameters” value (dogs) was “no effects”, the “AUCinf, Geo LS mean ratio” value [3, 4] was 1.68 and the “AUClast, Geo LS mean ratio” value [3, 4] was 1.69. For the same compound, the “Cmax, Geo LS mean ratio” value [3, 4] was 0.97, the AUC(0-inf) ([3]; single dose BIIB074 alone) was 16000 ng·h/mL and the AUC(0-t) ([3]; single dose BIIB074 alone) was 15700 ng·h/mL. The Cmax ([3]; single dose BIIB074 alone) was 1310 ng/mL, the AUC(0-inf) [3, 5] was 26900 ng·h/mL and the AUC(0-t) [3, 5] was 26500 ng·h/mL. For the same compound, the Cmax [3, 5] was 1260 ng/mL, the “Elimination with valproic acid” value ([3]; in vivo) was “prolonged” and the “Exposure (AUC) with valproic acid compared to BIIB074 alone” value ([3]; in vivo) was “increased”. For the same compound, the “Exposure based on AUCinf and AUClast higher with valproic acid than alone” value ([3]; in vivo) was about 70%, the “Change in Cmax with valproic acid compared to BIIB074 alone” value ([3]; in vivo, listed as BIIB074, hydrochloride) was “no change” and the “Plasma exposure higher with valproic acid at steady state than alone” value ([3]; single dose) was “approximately 1.7 fold”.
